The text below walks through data of patent US20080267942A1, “BENZAZEPIN-2(1H)-ONE DERIVATIVES” (Pfizer Limited, priority 2006, published 2008).

SMILES strings stand for the structures.

Experiment [1] addresses T1, porcine beta-2 adrenoceptor (Sus scrofa, UniProt Q28997).
T1 construct: expressed in transfected cells; host or cells: CHO cells
Kind of experiment: cAMP assay in CHO cells transfected with the porcine beta-2 adrenoceptor (DiscoveRx Hit Hunter cAMP II). Type of experiment: cell-based. To be noted: CHO cells transfected with porcine beta-2 adrenoceptor, 30 minutes incubation with compound. The protocol:
(§1) CHO cells transfected with the bovine or porcine beta-2 adrenceptors were maintained in culture in DMEM/HAMS F12+10% FBS+2 mM glutamine+500 μg/ml geneticin (for the porcine receptor the medium was supplement with 1.5 mM HEPES) at 37° C. with a 5% CO2 atmosphere.
(§2) Cells were plated into 96 well viewplates in medium and incubated overnight at 37° C. with a 5% CO2 atmosphere. The cells were pre-incubated with 0.5 mM IBMX in PBS for 30 minutes prior to incubation with increasing concentrations of experimental compound (5×10^−12 to 10^−5M) for 30 minutes at 37° C. with a 5% CO2 atmosphere. At the end of the incubation time the compound was removed and the cells assayed for cAMP using the DiscoveRx Hit Hunter cAMP II™ assay kit.
(§3) Duplicate samples were run for each experimental compound and the data generated was analysed using EC50 analysis software in Graphpad Prism.
On the technique in general: Cyclic AMP is a second messenger, typically raised through Gs and lowered through Gi signalling.

The target of experiment [2] is T2, bovine beta-2 adrenoceptor (Bos taurus, UniProt Q28044).
T2 construct: expressed in transfected cells; host or cells: CHO cells
Briefly: cAMP assay in CHO cells transfected with the bovine beta-2 adrenoceptor (DiscoveRx Hit Hunter cAMP II). Type of experiment: cell-based. Conditions: CHO cells transfected with bovine beta-2 adrenoceptor, 30 minutes incubation with compound. The protocol:
as §1, §2, §3

T1 sequence (Q28997 whole entry): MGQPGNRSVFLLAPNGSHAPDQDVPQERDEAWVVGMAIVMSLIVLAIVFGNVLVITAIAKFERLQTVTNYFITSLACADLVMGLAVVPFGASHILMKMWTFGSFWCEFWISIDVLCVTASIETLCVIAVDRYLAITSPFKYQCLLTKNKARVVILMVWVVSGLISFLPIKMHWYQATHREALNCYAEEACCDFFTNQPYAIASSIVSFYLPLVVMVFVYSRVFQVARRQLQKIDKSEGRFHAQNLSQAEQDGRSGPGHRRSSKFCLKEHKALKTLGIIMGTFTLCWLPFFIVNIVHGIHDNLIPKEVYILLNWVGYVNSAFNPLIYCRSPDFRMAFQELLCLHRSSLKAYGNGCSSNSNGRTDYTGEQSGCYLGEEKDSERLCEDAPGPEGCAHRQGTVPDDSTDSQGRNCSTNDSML
T2 sequence (Q28044 whole entry): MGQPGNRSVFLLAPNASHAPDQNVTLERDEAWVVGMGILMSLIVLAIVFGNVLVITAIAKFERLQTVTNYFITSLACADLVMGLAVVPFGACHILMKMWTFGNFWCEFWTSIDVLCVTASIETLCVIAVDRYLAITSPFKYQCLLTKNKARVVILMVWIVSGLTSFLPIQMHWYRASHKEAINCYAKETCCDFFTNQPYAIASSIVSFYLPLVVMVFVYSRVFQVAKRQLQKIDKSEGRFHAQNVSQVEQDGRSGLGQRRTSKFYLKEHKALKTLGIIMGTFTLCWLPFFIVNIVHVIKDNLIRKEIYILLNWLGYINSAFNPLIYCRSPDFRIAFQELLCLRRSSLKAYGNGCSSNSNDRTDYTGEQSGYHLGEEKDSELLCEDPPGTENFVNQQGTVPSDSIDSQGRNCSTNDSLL

On to `CNc1nc(CC(C)NC2CCn3c(=O)[nH]c4cccc(c43)C2O)ns1` (stereo not drawn) [Example 10, 7-Hydroxy-6-({1-methyl-2-[5-(methylamino)-1,2,4-thiadiazol-3-yl]ethyl}amino)-4,5,6,7-tetrahydroimidazo[4,5,1-jk][1]benzazepin-2(1H)-one], for which the concentration giving a half-maximal response (EC50) in experiment [1] was 399 nM; in experiment [2], 497 nM.

Regarding `Cc1nc(C)c(CCC(C)N[C@@H]2CCn3c(=O)[nH]c4cccc(c43)[C@H]2O)s1` (single isomer, unassigned) [Example 23b, 6-{[3-(2,4-Dimethyl-1,3-thiazol-5-yl)-1-methylpropyl]amino}-7-hydroxy-4,5,6,7-tetrahydroimidazo[4,5,1-jk][1]benzazepin-2(1H)-one], the EC50 in experiment [1] turned out to be 4.9 nM; in experiment [2], 12 nM.

As for `COc1ncc(CC[C@@H](C)N[C@@H]2CCn3c(=O)[nH]c4cccc(c43)[C@H]2O)s1` [Example 67, (6R,7R)-7-hydroxy-6-{[(1R)-3-(2-methoxy-1,3-thiazol-5-yl)-1-methylpropyl]amino}-4,5,6,7-tetrahydroimidazo[4,5,1-jk][1]benzazepin-2(1H)-one], the EC50 in experiment [1] and in experiment [2] was 2.7 nM in each case.

For the molecule `CC(CCc1ccc(N)nc1)N[C@@H]1CCn2c(=O)[nH]c3cccc(c32)[C@H]1O` (single isomer, unassigned) [Example 46], the EC50 came to 2.8 nM in experiment [1] and 3 nM in experiment [2].

On to `CC(CCc1cccc2cc[nH]c12)N[C@@H]1CCn2c(=O)[nH]c3cccc(c32)[C@H]1O` (mixture of isomers) [Example 38d, 7-Hydroxy-6-{[3-(1H-indol-7-yl)-1-methylpropyl]amino}-4,5,6,7-tetrahydroimidazo[4,5,1-jk][1]benzazepin-2(1H)-one], for which the results for the EC50 in experiment [1] and in experiment [2] were 1.1 nM and 0.6 nM, respectively.

Regarding `CC(CCc1ccc2[nH]ccc2c1)N[C@@H]1CCn2c(=O)[nH]c3cccc(c32)[C@H]1O` (single isomer, unassigned) [Example 37], the EC50 in experiment [1] turned out to be 28 nM; in experiment [2], 16 nM.

`C[C@H](CCc1c[nH]c2ccccc12)N[C@@H]1CCn2c(=O)[nH]c3cccc(c32)[C@H]1O` [Example 4e, 7-Hydroxy-6-{[3-(1H-indol-3-yl)-1-methylpropyl]amino}-4,5,6,7-tetrahydroimidazo[4,5,1-jk][1]benzazepin-2(1H)-one]: the concentration for a half-maximal effect (EC50) in experiment [1] was determined as 3.7 nM; in experiment [2], 1.1 nM.

`CC(CCc1c[nH]c2cnccc12)N[C@@H]1CCn2c(=O)[nH]c3cccc(c32)[C@H]1O` (mixture of isomers) [Example 32c, 7-Hydroxy-6-{[1-methyl-3-(1H-pyrrolo[2,3-c]pyridin-3-yl)propyl]amino}-4,5,6,7-tetrahydroimidazo[4,5,1-jk][1]benzazepin-2(1H)-one]: the values for the concentration giving a half-maximal response (EC50) in experiment [1] and in experiment [2] were 8.7 nM and 18 nM, respectively.

As to `CC(CCc1c[nH]c2cc(C#N)ccc12)N[C@@H]1CCn2c(=O)[nH]c3cccc(c32)[C@H]1O` (single isomer, unassigned) [Example 60], the results for the 50% effective concentration (EC50) in experiment [1] and in experiment [2] were 13 nM and 23 nM, respectively.

In the case of `CC(CCc1c[nH]c2ccccc12)NC1CCn2c(=O)[nH]c3cccc(c32)C1O` (single isomer, unassigned) [Example 4a, 7-Hydroxy-6-{[3-(1H-indol-3-yl)-1-methylpropyl]amino}-4,5,6,7-tetrahydroimidazo[4,5,1-jk][1]benzazepin-2(1H)-one], the EC50 is 6.9 nM in experiment [1] and 3.2 nM in experiment [2].

For the molecule `Cc1[nH]c2ccc(F)cc2c1CCC(C)N[C@@H]1CCn2c(=O)[nH]c3cccc(c32)[C@H]1O` (single isomer, unassigned) [Example 54], the EC50 in experiment [1] was 3.1 nM; in experiment [2] it was 2.7 nM.

In the case of `CC(CC(C)(C)c1c[nH]c2ccccc12)N[C@@H]1CCn2c(=O)[nH]c3cccc(c32)[C@H]1O` (mixture of isomers) [Example 8, 7-Hydroxy-6-{[3-(1H-indol-3-yl)-1,3-dimethylbutyl]amino}-4,5,6,7-tetrahydroimidazo[4,5,1-jk][1]benzazepin-2(1H)-one], the EC50 in experiment [1] worked out at 6.1 nM; in experiment [2], 114 nM.

For the molecule `C[C@H](CCc1c[nH]c2ccccc12)N[C@@H]1CCn2c(=O)[nH]c3cccc(c32)[C@H]1O` [Example 4f, 7-Hydroxy-6-{[3-(1H-indol-3-yl)-1-methylpropyl]amino}-4,5,6,7-tetrahydroimidazo[4,5,1-jk][1]benzazepin-2(1H)-one], the results for the 50% effective concentration (EC50) in experiment [1] and in experiment [2] were 2.5 nM and 1.7 nM, respectively.

In the case of `CCOC(=O)c1[nH]c2cc(Cl)ccc2c1CCN[C@@H]1CCn2c(=O)[nH]c3cccc(c32)[C@H]1O` (racemic) [Example 41, Ethyl-6-chloro-3-(2-{[7-hydroxy-2-oxo-1,2,4,5,6,7-hexahydroimidazo[4,5,1-jk][1]benzazepin-6-yl]amino}ethyl)-1H-indole-2-carboxylate], the values for the EC50 in experiment [1] and in experiment [2] were 26 nM and 546 nM, respectively.

On to `C[C@H](CCc1cnco1)N[C@@H]1CCn2c(=O)[nH]c3cccc(c32)[C@H]1O` [Example 66, (6R,7R)-7-hydroxy-6-{[(1R)-1-methyl-3-(1,3-oxazol-5-yl)propyl]amino}-4,5,6,7-tetrahydroimidazo[4,5,1-jk][1]benzazepin-2(1H)-one], for which the EC50 in experiment [1] was 6.2 nM; in experiment [2] it was 18.7 nM.

Consider `Cc1ccc2[nH]cc(CCC(C)N[C@@H]3CCn4c(=O)[nH]c5cccc(c54)[C@H]3O)c2c1` (mixture of isomers) [Example 33, 7-Hydroxy-6-{[1-methyl-3-(5-methyl-1H-indol-3-yl)propyl]amino}-4,5,6,7-tetrahydroimidazo[4,5,1-jk][1]benzazepin-2(1H)-one], for which the EC50 is 24 nM in experiment [1] and 74 nM in experiment [2].

For the molecule `C[C@@H](CCc1c[nH]c2ccccc12)N[C@@H]1CCn2c(=O)[nH]c3cccc(c32)[C@H]1O` (racemic) [Example 4c, 7-Hydroxy-6-{[3-(1H-indol-3-yl)-1-methylpropyl]amino}-4,5,6,7-tetrahydroimidazo[4,5,1-jk][1]benzazepin-2(1H)-one], the EC50 in experiment [1] came out at 143 nM; in experiment [2] it was 103 nM.

For `CC(CCn1cnc2ncccc21)N[C@@H]1CCn2c(=O)[nH]c3cccc(c32)[C@H]1O` (single isomer, unassigned) [Example 77], the EC50 in experiment [1] came to 2.8 nM.

For `Cc1ncsc1CCC(C)N[C@@H]1CCn2c(=O)[nH]c3cccc(c32)[C@H]1O` (mixture of isomers) [Example 34a, 7-Hydroxy-6-{[1-methyl-3-(4-methyl-1,3-thiazol-5-yl)propyl]amino}-4,5,6,7-tetrahydroimidazo[4,5,1-jk][1]benzazepin-2(1H)-one], the EC50 stood at 45 nM in experiment [1] and 23 nM in experiment [2].

Consider `CC(CCc1cn(C)c2ccccc12)N[C@@H]1CCn2c(=O)[nH]c3cccc(c32)[C@H]1O` (mixture of isomers) [Example 14c, 7-Hydroxy-6-{[1-methyl-3-(1-methyl-1H-indol-3-yl)propyl]amino}-4,5,6,7-tetrahydroimidazo[4,5,1-jk][1]benzazepin-2(1H)-one], for which the EC50 in experiment [1] was 4.2 nM; in experiment [2], 5.5 nM.

With `CC(CCc1cccc(=O)[nH]1)N[C@@H]1CCn2c(=O)[nH]c3cccc(c32)[C@H]1O` (mixture of isomers) [Example 7c, 7-Hydroxy-6-{[1-methyl-3-(6-oxo-1,6-dihydropyridin-2-yl)propyl]amino}-4,5,6,7-tetrahydroimidazo[4,5,1-jk][1]benzazepin-2(1H)-one], the EC50 in experiment [2] turned out to be 3.8 nM.

Consider `Cc1nnsc1CCC(C)N[C@@H]1CCn2c(=O)[nH]c3cccc(c32)[C@H]1O` (single isomer, unassigned) [Example 70], for which, in experiment [1], the EC50 is 3.3 nM.

Consider `COc1cncc(CCC(C)N[C@@H]2CCn3c(=O)[nH]c4cccc(c43)[C@H]2O)c1` (single isomer, unassigned) [Example 73], for which the EC50 in experiment [1] worked out at 0.8 nM.

In the case of `Cc1nc2ccccc2n1CCC(C)N[C@@H]1CCn2c(=O)[nH]c3cccc(c32)[C@H]1O` (single isomer, unassigned) [Example 78], the EC50 in experiment [1] is 1.2 nM.

Take `CC(CCc1cncnc1)N[C@@H]1CCn2c(=O)[nH]c3cccc(c32)[C@H]1O` (single isomer, unassigned) [Example 72]: the EC50 in experiment [1] was found to be 2.7 nM.

As for `CC(CCn1cnnc1)N[C@@H]1CCn2c(=O)[nH]c3cccc(c32)[C@H]1O` (single isomer, unassigned) [Example 71], the EC50 in experiment [1] came out at 15.1 nM.

Regarding `CC(CCn1cnc2cc(F)c(F)cc21)N[C@@H]1CCn2c(=O)[nH]c3cccc(c32)[C@H]1O` (single isomer, unassigned) [Example 79], the EC50 in experiment [1] was determined as 1 nM.

With `CC(Cc1c[nH]c2ccccc12)N[C@@H]1CCn2c(=O)[nH]c3cccc(c32)[C@H]1O` (stereo partly drawn) [Example 68, (6R,7R)-7-hydroxy-6-{[2-(1H-indol-3-yl)-1-methylethyl]amino}-4,5,6,7-tetrahydroimidazo[4,5,1-jk][1]benzazepin-2(1H)-one], the 50% effective concentration (EC50) in experiment [1] is 4.9 nM.

Turning to `CC(CCn1cnc2cc(F)cc(F)c21)N[C@@H]1CCn2c(=O)[nH]c3cccc(c32)[C@H]1O` (single isomer, unassigned) [Example 69], the EC50 in experiment [1] was 0.4 nM.

As to `CC(CCc1cnc(O)s1)N[C@@H]1CCn2c(=O)[nH]c3cccc(c32)[C@H]1O` (single isomer, unassigned) [Example 74], in experiment [1], the EC50 worked out at 4.7 nM.

In the case of `CC(CCn1nnc2ccccc21)N[C@@H]1CCn2c(=O)[nH]c3cccc(c32)[C@H]1O` (single isomer, unassigned) [Example 75], the EC50 in experiment [1] is 4.7 nM.

Turning to `CC(CCn1cnc2cnccc21)N[C@@H]1CCn2c(=O)[nH]c3cccc(c32)[C@H]1O` (single isomer, unassigned) [Example 76], the EC50 in experiment [1] came out at 2 nM.

One may read the EC50 as the midpoint of the concentration-response curve.
